Source: patent publication EP4813985A1, “PREPARATION OF QUINAZOLINONE DERIVATIVE AS KINASE INHIBITOR, AND USE THEREOF” (Xizang Haisco Pharmaceutical Co., Ltd., priority 2023, dated 2025)
Like-named read-outs stand apart in the source and are kept apart here.

What was measured:
[1] = Pharmacokinetic test in mice; type: in vivo, ICR mice; details: i.g. (10 mg/kg), relative to Control compound 1
[2] = Pharmacokinetic test in mice; type: in vivo, ICR mice; details: mouse, plasma; for Vd: read-out: Vdss
Protocol: 3.1 Experimental animals: Male ICR mice, 20-25 g, 6 mice/compound, purchased from Chengdu Dossy Experimental Animals Co., Ltd.
3.2 Experimental design: On the day of the experiment, the ICR mice were randomly grouped according to their body weights. The animals were fasted with water available for 12-14 h one day before the administration, and were fed 4 h after the administration. Table 3.1 Administration information
vehicle for intravenous administration: 5% DMA + 5% Solutol + 90% Saline; vehicle for intragastric administration: 0.5% MC
Before and after administration, 0.06 mL of blood was taken from the orbit under isoflurane anaesthesia and placed in an EDTAK2 centrifuge tube. The tube was centrifuged at 5000 rpm at 4°C for 10 min, and plasma was collected. The blood sampling time points for both the intravenous administration group and intragastric administration group were 0 min, 5 min, 15 min, 30 min, 1 h, 2 h, 4 h, 7 h, 24 h, and 48 h. Before analysis and detection, all samples were stored at -80°C, and the samples were quantitatively analysed by LC-MS/MS. Table 3.2 Pharmacokinetic parameters of test compounds in plasma of mice

[3] = test system: A375 cells; test: A375 cell proliferation inhibition test; type: cell-based; details: Homo sapiens, A-375, 72 h
Protocol: A375 cells (ATCC, CRL-1619) were cultured in DMEM complete medium (+10% FBS) in a CO2 incubator at 37°C for 48 h. The cells were trypsinised and counted, and then the density was adjusted to 1.67 × 10^4 cells/mL. 90 µL (1500 cells) of cells were inoculated into each well of a 96-well transparent bottom plate, and the plate was transferred to a CO2 incubator and the cells were cultured at 37°C overnight. After the cells were incubated overnight, 10 µL of the diluted compound (final concentration starting from 10 µM, 3-fold dilution, 11 concentrations) was added to each well using a multi-channel pipette. The […] control was a serum-free medium containing DMSO. After mixing evenly, the cells were placed in a CO2 incubator at 37°C for 72 h. After the incubation, the CellCounting-Lite®2.0 kit detection solution (Vazyme, DD1101-03) was taken out and returned to room temperature. 100 µL of CellCounting-Lite2.0 detection solution was added to each well, the plate was sealed with a sealing film, and the plate was placed on a shaker for shaking for 15 min (the whole process should be kept away from light). The Luminescence module of the microplate reader (BMG LRBTECH) was used to detect the fluorescence signal value LUM of each well. The formula Inhibition rate% = ((LUM Solvent−LUM Compound)/(LUM Solvent))∗100% [formula] was used to calculate the inhibition rate of the compound. The Graphpad software log(inhibitor) vs. response -- Variable slope (four parameters) equation was used to perform fitting analysis and calculate the IC50value of the sample. The ordinate of the data is the percentage of inhibition rate, and the abscissa is the logarithm of the sample concentration (Log10).

[4] = molecular target: T1, BRAFV600E (Homo sapiens, UniProt P15056, V600E); test: BRAFV600E enzyme activity test (ADP-Glo, MEK1K97R substrate); type: biochemical; details: Inhibitory activities of compounds on BRAFV600E
T1 construct: purchased ABCAM ab204154
Protocol: BRAFV600E (ABCAM, ab204154) and MEK1K97R (USBio, M2865-06J) proteins were diluted at an appropriate dilution factor using 1×Assay buffer (PH = 7.4 Tris-HCl buffer, supplemented with 10 mM MgCl2) such that the final concentration of BRAFV600E was 10 ng/µL and the final concentration of substrate MEK1K97R was 1 µM. 1 µL of BRAFV600E, 1 µL of compound serial dilution (final concentration starting from 2 µM, 5-fold dilution, 8 concentrations), and 6 µL of Assay buffer were pipetted to a 384-well reaction plate with a capacity of 20 µL. The plate was pre-incubated in a constant temperature incubator at 37°C for 30 min. 1 µL of 200 µM ATP and 1 µM MEK1 K97R were added to the reaction wells corresponding to the compound incubation, and mixed evenly by shaking, and preincubation was performed in a constant temperature incubator at 37°C for 60 min for enzymatic reaction. After the reaction was completed, 5 µL of the above reaction product was pipetted to another 384-well plate, and 5 µL of formulated ADP-Glo™ Reagent (Promega, V9101) was added and mixed evenly by pipetting, and then the plate was placed at room temperature for 40 min. 10 µL Kinase Detection Reagent was added to the 384-well plate and incubated at room temperature for 40 min. Finally, a microplate reader (BMG LRBTECH) was used and Luminescence module was selected to detect the LUM fluorescence value of each well (the gain value was fixed at 3600), and the formula Inhibition rate% = (1−(LUM Compound−LUM Background)/(LUM Solvent−LUM Background))∗100% [formula] was used to calculate the inhibition rate of the compound on BRAFV600E. The Graphpad software log(inhibitor) vs. response -- Variable slope (four parameters) equation was used to perform fitting analysis and calculate the IC50value of the sample.

[5] = Inhibitory activities of compounds on A375 cells, read-out: IC50/nM
[6] = A375 cells, values in text, read-out: IC50

T1 sequence (P15056 416-766 V600E limits assumed): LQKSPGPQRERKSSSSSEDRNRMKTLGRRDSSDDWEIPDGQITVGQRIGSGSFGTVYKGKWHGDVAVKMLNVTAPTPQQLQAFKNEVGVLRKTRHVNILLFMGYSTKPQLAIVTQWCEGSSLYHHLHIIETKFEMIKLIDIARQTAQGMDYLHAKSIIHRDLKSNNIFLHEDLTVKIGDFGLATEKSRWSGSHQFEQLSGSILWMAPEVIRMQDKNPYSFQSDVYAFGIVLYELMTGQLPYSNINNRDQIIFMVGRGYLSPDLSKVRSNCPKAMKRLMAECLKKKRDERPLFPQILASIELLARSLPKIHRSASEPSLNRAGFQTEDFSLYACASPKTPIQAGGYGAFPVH

SMILES: N#Cc1c(NS(=O)(=O)N2CC(=CF)C2)ccc(F)c1Oc1ccc2ncn(CC(F)F)c(=O)c2c1 [Compound 11]
- Fold change in brain-blood ratio relative to control compound [1]: 6.1
- AUC(0-t) ([2]; iv, i.v. (2.5 mg/kg)): 245 µg·h/mL
- clearance ([2]; iv, i.v. (2.5 mg/kg)): 0.163 mL/min/kg
- half-life ([2]; iv, i.v. (2.5 mg/kg)): 11.1 h
- Vd ([2]; iv, i.v. (2.5 mg/kg)): 0.123 L/kg
- bioavailability ([2]; po, i.g. (10 mg/kg)): 98.1%
- AUC(0-t) ([2]; po, i.g. (10 mg/kg)): 962 µg·h/mL
- half-life ([2]; po, i.g. (10 mg/kg)): 8.81 h
- IC50 [3, 5]: ≤ 10 nM

SMILES: CN(C1CC(=C(F)F)C1)S(=O)(=O)Nc1ccc(F)c(Oc2ccc3ncn(CC(F)F)c(=O)c3c2)c1C#N (centres unmarked) [Compound 12]
- IC50 [3, 5]: 10 to 50 nM

SMILES: CC=C1CN(S(=O)(=O)Nc2ccc(F)c(Oc3ccc4ncn(CCF)c(=O)c4c3)c2C#N)C1 [Compound 14]
- Fold change in brain-blood ratio relative to control compound [1]: 3.5
- AUC(0-t) ([2]; iv, i.v. (2.5 mg/kg)): 268 µg·h/mL
- clearance ([2]; iv, i.v. (2.5 mg/kg)): 0.154 mL/min/kg
- half-life ([2]; iv, i.v. (2.5 mg/kg)): 9.27 h
- Vd ([2]; iv, i.v. (2.5 mg/kg)): 0.098 L/kg
- bioavailability ([2]; po, i.g. (10 mg/kg)): 85.1%
- AUC(0-t) ([2]; po, i.g. (10 mg/kg)): 912 µg·h/mL
- half-life ([2]; po, i.g. (10 mg/kg)): 9 h
- IC50 [3, 6]: 1.44 nM
- IC50 [3, 5]: ≤ 10 nM
- IC50 [4]: ≤ 10 nM

SMILES: C=C1CN(S(=O)(=O)Nc2ccc(F)c(Oc3ccc4ncn(CC(F)F)c(=O)c4c3)c2C#N)CC1F (centres unmarked) [Compound 21]
- IC50 [3, 5]: ≤ 10 nM

SMILES: CC=C1CN(S(=O)(=O)Nc2ccc(F)c(Oc3ccc4c(c3)C3=NCCN3C=N4)c2C#N)C1 [Compound 22]
- IC50 [3, 5]: 10 to 50 nM

SMILES: C=C1CN(S(=O)(=O)Nc2ccc(F)c(Oc3ccc4ncc(N5CCOCC5)nc4c3)c2C#N)C1 [Compound 23]
- IC50 [3, 5]: ≤ 10 nM

SMILES: CC(F)=C1CN(S(=O)(=O)Nc2ccc(F)c(Oc3ccc4ncn(CC(F)F)c(=O)c4c3)c2C#N)C1 [Compound 24]
- Fold change in brain-blood ratio relative to control compound [1]: 8.1
- AUC(0-t) ([2]; iv, i.v. (2.5 mg/kg)): 91.8 µg·h/mL
- clearance ([2]; iv, i.v. (2.5 mg/kg)): 0.462 mL/min/kg
- half-life ([2]; iv, i.v. (2.5 mg/kg)): 8.1 h
- Vd ([2]; iv, i.v. (2.5 mg/kg)): 0.237 L/kg
- bioavailability ([2]; po, i.g. (10 mg/kg)): > 98%
- AUC(0-t) ([2]; po, i.g. (10 mg/kg)): 492 µg·h/mL
- half-life ([2]; po, i.g. (10 mg/kg)): 9.83 h
- IC50 [3, 6]: 2.16 nM
- IC50 [3, 5]: ≤ 10 nM
- IC50 [4]: ≤ 10 nM

SMILES: N#Cc1c(NS(=O)(=O)N2CC(=CC(F)(F)F)C2)ccc(F)c1Oc1ccc2ncn(CC(F)F)c(=O)c2c1 [Compound 25]
- IC50 [3, 5]: 10 to 50 nM

SMILES: N#Cc1c(NS(=O)(=O)N2CC(=CC(F)F)C2)ccc(F)c1Oc1ccc2ncn(CC(F)F)c(=O)c2c1 [Compound 26]
- IC50 [3, 5]: 10 to 50 nM

SMILES: CC=C1CN(S(=O)(=O)Nc2ccc(F)c(Oc3ccc4ncn(C)c(=O)c4c3)c2C#N)C1 [Compound 27]
- IC50 [3, 5]: ≤ 10 nM
